Ends that are not written are not given here. Peptide text beside a SMILES is read from it. * marks the point of attachment. Biotin = O=C1N[C@H]2[C@H](CS[C@H]2CCCCC(=O)*)N1
What was measured:
[1] = system: C57BL/6 mice; experiment: Safety in immune-competent C57BL/6 mice; type: in vivo; details: intraperitoneal, 10 and 30 mg/kg; for histological alterations in evaluated organs: 3 days post-injection
Description: Mice were dosed by intraperitoneal injection with 10 and 30 mg/kg of Disruptin, and brain, lung, liver, heart, kidneys, spleen, stomach, small intestine, mesenteric lymph nodes, cecum, colon, pancreas, ovaries, bone marrow, and eyes were evaluated 3 days post-injection.

[2] = system: UMSCC1 cells; experiment: Clonogenic cell survival assay, UMSCC1; type: cell-based, human
Description: (§1) Clonogenic assays were performed using standard techniques.^34 The fraction surviving each treatment was normalized to the survival of the control cells. Peptide cell survival curves were fitted using the equation SF=(C50)^m/[(C50)^m+C^m], where SF is the surviving fraction, C is the peptide concentration, C50 is the concentration of peptide that produces a 50% cell survival and m is the slope of the sigmoid curve.
(§2) We then assessed colonogenic survival in head and neck (UMSCC1, UMSCC10B, UMSCC74B), lung (A549, H1975, H3255), and HeLa cancer cells. Normal human esophageal squamous epithelial (Het1A) and lung fibroblast (MRC5) cell lines along with EGFR negative CHO cells were selected to study selectivity.

[3] = system: UMSCC1 xenografts; experiment: In vivo tumor growth study, UMSCC1 xenografts; design: species or system mice
Description: (a) To determine if EGFR level was affected in the UMSCC1 xenograft tumor, mice were injected with either DMSO, specific, or non-specific biotinylated peptide (8 mg/kg) intraperitoneally. Three weeks after the injection, tumors (white arrow) along with some adjacent normal tissue (yellow arrow) were harvested. Immunostaining was performed for EGFR and HSP90. HSP90 levels were not affected by either treatment either in tumor or in the adjacent skin tissue. EGFR expression was reduced in the tumor treated with specific peptide relative to normal adjacent skin cells. (b) The effect on tumor growth was also assessed after treatment with two injections separated by 3 days. Tumor volume was recorded every other day during this period, (c) Time to tumor volume doubling was plotted for each treatment condition using Kaplan-Meier method and (d) Comparisons between any two treatment groups was analyzed by log rank tests.
Mice were handled according to the established procedures of the University of Michigan Laboratory Animals Maintenance Manual. To generate tumor xenografts, 2×10^6 UMSCC1 cells were transplanted into the flanks of athymic nude Foxn1^nu mice (Harlan Laboratories). […]
Tumor volume doubling was determined for each xenograft by identifying the earliest day on which it was at least twice as large as on the first day of treatment. […]

[4] = system: UMSCC1 xenografts; experiment: Peptide internalization assay in UMSCC1 xenografts; type: in vivo; details: 8 mg/kg, i.p., nude mice with UMSCC1 xenografts
Description: Delivery of the peptide to the UMSCC1 xenografts was assessed after injection of peptides (8 mg/kg, i.p.), 3 days later the tumors were removed, cryosections were immunostained for EGFR, and the internalized biotinylated peptide was visualized by Streptavidin Alexa Fluor […] reagent.
The UMSCC1 xenografts were cryopreserved in OCT (Electron Microscopy Sciences). Five μm sections were cut from tissues prepared on days 1 and 3 after peptide treatment. Sections were fixed in cold methanol for 20 min and then were blocked with 1% Bovine Serum Albumin (BSA). The sections were incubated overnight with anti-EGFR antibody (Santa Cruz). After washing, the sections were incubated with anti-rabbit Alexa Fluor 488 (Molecular Probes) and Streptavidin conjugated Alexa Fluor 594 (Molecular Probes). Coverslips were mounted with one drop of Prolong Gold anti-fade reagent with DAPI (4,6-diamidino-2-phenylindole; Molecular Probes) to visualize the nuclei. Fluorescence images were acquired using a DP70 camera fitted on an Olympus 1X-71 microscope.

[5] = biological target: T1, EGFR-HSP90 interaction (Homo sapiens, UniProt P07900); experiment: EGFR-HSP90 interaction by immunoprecipitation and immunoblotting; type: cell-based; details: 24-hour exposure; cancer cell lines (UMSCC1, H1975); GA 50 nM as positive control
T1 construct: endogenous in cells; host or cells: UMSCC1, H1975, Het1A, MRC5

[6] = system: MRC5; experiment: Clonogenic cell survival assay, MRC5; type: cell-based; details: cell permeable peptides; MRC5, normal human fibroblasts, WT-EGFR
Description: as §1, §2

[7] = system: Het1A; experiment: Clonogenic cell survival assay, Het1A; type: cell-based; details: cell permeable peptides, normal human epithelial, WT-EGFR
Description: as §1, §2

[8] = biological target: T2, HSP90 (Homo sapiens, UniProt P07900); experiment: Peptide binding assay (streptavidin pull-down of biotinylated peptide, HSP90 immunoblot); details: UMSCC1 cell lysate; 10, 30 and 100 μg/ml
T2 construct: cell lysates from cancer or normal cells were prepared by 3 freeze-thaw cycles; endogenous in cells; host or cells: UMSCC1, H1975, Het1A, MRC5 (A11); UMSCC1 (A13)
Description: (a) To determine if the lead peptide interacts directly with tumor HSP90, cell lysates from cancer or normal cells were prepared by 3 freeze-thaw cycles and then incubated with 3 μg/ml of specific or non-specific biotin coupled peptides for 2 hours. The peptide was affinity purified using Streptavidin-agarose beads, and bound HSP90 was detected by immunoblotting for HSP90. […] (b) The effect of the treatment with specific and non-specific peptide on HSP90-EGFR interaction was determined by IP of HSP90 followed by IB with EGFR at 24 hours post treatment. […] The increased levels of HSP70 upon GA treatment indicate inhibition of HSP90 activity. (c) Specificity of the peptide treatment compared to GA was evaluated in tumor and normal cells as described in FIG. 3b, by assessing the levels of EGFR and PARP cleavage (marker of apoptotic cell death) at 72 hours post treatment, (d) cell survival was assessed using colony formation assay.
(a) UMSCC1 cell lysate was incubated with three concentrations of specific or non-specific peptide (10, 30 and 100 μg/ml) followed by immunoblotting with anti-HSP90 antibody. […] (b) The effect of EGFR specific peptide on HSP90's ability to bind with ATP was assessed. […] Bound protein was eluted in SDS-PAGE buffer, and the levels were determined by immunoblot analysis. […]

[9] = system: UMSCC10B; experiment: Clonogenic cell survival assay, UMSCC10B; type: cell-based, human; details: cell permeable peptides, H&N cancer, WT-EGFR
Description: as §1, §2

[10] = system: CHO; experiment: Clonogenic cell survival assay, CHO; type: cell-based; details: cell permeable peptides, hamster ovarian
Description: as §1, §2

[11] = system: H3255; experiment: Clonogenic cell survival assay, H3255; type: cell-based, human; details: cell permeable peptides; H3255, lung cancer, L858R-EGFR
Description: as §1, §2

[12] = system: UMSCC74B; experiment: Clonogenic cell survival assay, UMSCC74B; type: cell-based, human; details: cell permeable peptides, H&N cancer, WT-EGFR
Description: as §1, §2

[13] = system: HeLa; experiment: Clonogenic cell survival assay, HeLa; type: cell-based, human; details: cell permeable peptides, cervical cancer, WT-EGFR
Description: as §1, §2

[14] = system: A549; experiment: Clonogenic cell survival assay, A549; type: cell-based, human; details: cell permeable peptides; A549, lung cancer, WT-EGFR
Description: as §1, §2

[15] = system: EGFR; type: in vivo, mice; details: UMSCC1 xenograft, 8 mg/kg intraperitoneally
Description: Delivery of the peptide to the UMSCC1 xenografts was assessed after injection of peptides (8 mg/kg, i.p.), 3 days later the tumors were removed, cryosections were immunostained for EGFR, and the internalized biotinylated peptide was visualized by Streptavidin Alexa Fluor 562 reagent.

[16] = system: H1975; experiment: Clonogenic cell survival assay, H1975; type: cell-based, human; details: cell permeable peptides; H1975, lung cancer, T790M-EGFR
Description: as §1, §2

SVDNPHVC [Peptide 2]
complete blood counts and liver cytosolic enzymes (AST, ALT) [1]: not significantly different from controls | histological alterations in evaluated organs [1]: no histological alterations

DEAYVMASVDNPHVCRLLGIC [Peptide 5]
Survival Fraction ([2]; clonogenic survival of UMSCC1 cells, synthetic peptides delivered using Chariot): 1 ± 0.14

CC(C)[C@H](NC(=O)[C@H](Cc1c[nH]cn1)NC(=O)[C@@H]1CCCN1C(=O)[C@H](CC(N)=O)NC(=O)[C@H](CC(=O)O)NC(=O)[C@@H](NC(=O)[C@H](CO)NC(=O)[C@H](CCCNC(=N)N)NC(=O)[C@H](CCCNC(=N)N)NC(=O)[C@H](CCCNC(=N)N)NC(=O)[C@H](CCC(N)=O)NC(=O)[C@H](CCCNC(=N)N)NC(=O)[C@H](CCCNC(=N)N)NC(=O)[C@H](CCCCN)NC(=O)[C@H](CCCCN)NC(=O)[C@H](CCCNC(=N)N)NC(=O)CNC(=O)[C@H](Cc1ccc(O)cc1)NC(=O)CCCC[C@@H]1SC[C@@H]2NC(=O)N[C@@H]21)C(C)C)C(=O)N[C@@H](CS)C(=O)O [Specific Peptide] (Biotin-YGRKKRRQRRRSVDNPHVC-OH; N-terminus and C-terminus assumed)
systemic toxicity ([3]; UMSCC1 xenograft mice): No systemic toxicity | time post injection peptide remained detectable in xenografts [4]: 72 h

NHVPSDVC [Peptide 8]
complete blood counts and liver cytosolic enzymes (AST, ALT) [1]: not significantly different from controls | histological alterations in evaluated organs [1]: no histological alterations

Biotin-YGRKKRRORRR-NHVPSDVC [Non Specific Peptide]
EGFR-HSP90 interaction [5]: no effect | clonogenic survival (surviving fraction) [6]: 1.04 ± 0.05 | clonogenic survival (surviving fraction) [7]: 0.91 ± 0.11 | binding of peptide with HSP90 versus peptide concentration [8]: minimal interaction | clonogenic survival (surviving fraction) [2]: 1.62 ± 0.04 | clonogenic survival (surviving fraction) [9]: 0.98 ± 0.04 | clonogenic survival (surviving fraction) [10]: 1.12 ± 0.14 | clonogenic survival (surviving fraction) [11]: 1.0 ± 0.07 | clonogenic survival (surviving fraction) [12]: 0.88 ± 0.10 | clonogenic survival (surviving fraction) [13]: 0.92 ± 0.08 | clonogenic survival (surviving fraction) [14]: 0.81 ± 0.09 | median tumor doubling time ([3]; UMSCC1 xenografts, single dose): 5.5 days | HSP90 levels in tumor or adjacent skin tissue (immunostaining) [15]: not affected | clonogenic survival (surviving fraction) [16]: 0.77 ± 0.17

COC1=C2C[C@@H](C)C[C@H](OC)[C@H](O)[C@@H](C)/C=C(\C)[C@H](OC(N)=O)[C@@H](OC)/C=C\C=C(/C)C(=O)NC(=CC1=O)C2=O [Geldanamycin, reference compound]
histological alterations in evaluated organs [1]: histological evidence of toxicity in eye and liver
